According to US12357603B2, “Acyl sulfonamides for treating cancer” (Bayer Aktiengesellschaft, priority 2019, dated 2025):
Where two headings read alike, the source gives them in different places.

Assays:
[1] = molecular target: Recombinant human His-tagged Kat6a protein (amino acids 194-810) (Homo sapiens (Human), UniProt Q92794); test: Kat6a activity assay (TR-FRET, acetylation of biotinylated Histone-H4-derived peptide); type: biochemical; conditions: 60 mins at 22° C., read-out: KAT6A-DPF/HAT domain IC50 [mol/l] (arithmetic mean)
Outline: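 TR-FRET read-out of H4 K8 acetylation, using anti-acetyl-K8 antibody and streptavidin acceptor, after anacardic acid stop; IC50 from four-parameter regression normalized to DMSO. Reaction: recombinant human Kat6a aa 194-810 (insect-cell derived), 220 nM H4 1-24 peptide, 600 nM acetyl-CoA, pH 8, 22 °C, 60 min, compounds 0.01-20 μM.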

[2] = test system: ESR1 transcription (luciferase signal in MVLN cells); test: Repression of ESR1 transcription, luciferase reporter in MVLN cells; type: cell-based; conditions: inhibition of luciferase signal in MVLN cells, arithmetic mean
Outline: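 Luminescence from an ER-driven Vitellogenin A2 element–luciferase reporter was measured after 24 h of treatment of MVLN cells, in duplicate wells. Alamar Blue (2 h, 530/590 nm) served as a cell-density control.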

[3] = molecular target: Recombinant human GST-tagged Kat6b protein (431-end); test: Kat6b activity assay (TR-FRET, acetylation of biotinylated Histone-H4-derived peptide); type: biochemical; conditions: 30 mins at 22° C., read-out: KAT6B activity assay IC50 [mol/l] (arithmetic mean)
Procedure: Kat6b inhibitory activities of the compounds described in the present invention were quantified using a Fluorescence Resonance Energy Transfer (TR-FRET) assay which measures acetylation of a synthetic, biotinylated Histone-H4-derived peptide by the enzyme.
In this case 50 nl DMSO were used instead of compounds. […] IC50 values were determined by regression analysis based on a 4 parameter equation (minimum, maximum, ICM, Hill; Y=Max+(Min−Max)/(1+(X/ICso) Hill) using the Screener Software (Genedata).

MDA-MB-436 cells = test: Proliferation assay MDA-MB-436, negative control cell line (Alamar Blue, 144 h); type: cell-based; conditions: arithmetic mean
Outline: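 Viability read as Alamar Blue fluorescence (590 nm, 2 h) after 144 h compound exposure at 37 °C, 5% CO2. Cells seeded at 3000 per well in 2.5% FBS DMEM/Ham's F12, dosed a day later over 2.0×10E-9–2.0×10E-5 M in 9 steps with 0.2% DMSO, in triplicate.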

ZR-75-1 cells = test: Proliferation assay ZR-75-1 (Alamar Blue, 144 h); type: cell-based; conditions: arithmetic mean, read-out: ZR75-1 proliferation assay, EC50 [M] (arithmetic mean)
Outline: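 Alamar Blue fluorescence (590 nm, 2 h reagent step) measured viability after 144 h compound exposure at 37 °C, 5% CO2. Compounds spanned 2.0×10E-5 to 2.0×10E-9 M in 9 dilutions at 0.2% DMSO, in triplicate, added 24 h after plating 3000 cells/well in RPMI 1640 plus 2.5% FBS.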

[4] = Homo sapiens, MDA-MB-436, 144 h

Recombinant human His-tagged Kat6a protein (amino acids 194-810), sequence (Q92794 194-810): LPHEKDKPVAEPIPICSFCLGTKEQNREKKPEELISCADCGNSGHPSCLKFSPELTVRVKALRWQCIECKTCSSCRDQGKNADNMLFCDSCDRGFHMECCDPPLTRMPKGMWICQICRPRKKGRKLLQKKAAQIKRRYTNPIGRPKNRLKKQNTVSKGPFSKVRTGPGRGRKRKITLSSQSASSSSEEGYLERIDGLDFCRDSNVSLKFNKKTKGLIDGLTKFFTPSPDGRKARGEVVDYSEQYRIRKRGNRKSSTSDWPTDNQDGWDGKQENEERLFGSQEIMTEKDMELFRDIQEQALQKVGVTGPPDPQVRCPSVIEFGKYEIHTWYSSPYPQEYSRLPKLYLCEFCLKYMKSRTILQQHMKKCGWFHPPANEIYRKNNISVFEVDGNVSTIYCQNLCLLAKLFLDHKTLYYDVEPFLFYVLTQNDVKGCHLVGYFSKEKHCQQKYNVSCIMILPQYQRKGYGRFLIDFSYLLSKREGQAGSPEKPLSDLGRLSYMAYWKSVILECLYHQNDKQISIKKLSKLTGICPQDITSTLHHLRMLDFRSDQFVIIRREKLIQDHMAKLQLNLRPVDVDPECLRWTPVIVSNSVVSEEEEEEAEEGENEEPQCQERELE

Compound | IC50 [1] [nM] | IC50 ([2]; Homo sapiens, MVLN) [µM] | IC50 [3] [nM] | EC50 (MDA-MB-436 cells; [4]) [µM] | EC50 (MDA-MB-436 cells) [µM] | IC50 [2] [µM] | EC50 (ZR-75-1 cells; Homo sapiens, ZR-75-1, 144 h) [M] | EC50 (ZR-75-1 cells) [M]
CCOc1ccccc1S(=O)(=O)NC(=O)c1cc2cc(F)c(N(C)C)cc2o1 [Example 198, 6-(Dimethylamino)-N-((2-ethoxyphenyl)sulfonyl)-5-fluorobenzofuran-2-carboxamide] | 4060 | 2.32 |  | > 20 |  |  | 7.2e-06 | 
CN(C)c1cc2oc(C(=O)NS(=O)(=O)c3ccccc3-c3ccccc3)cc2cc1F [Example 199, N-([1,1′-biphenyl]-2-ylsulfonyl)-6-(dimethylamino)-5-fluorobenzofuran-2-carboxamide] | 2650 | 9.4 |  | > 20 |  |  | > 2e-05 | 
CCOc1ccccc1S(=O)(=O)NC(=O)c1cc2cc(C)c(N(C)C)cc2o1 [Example 200, 6-(Dimethylamino)-N-(2-ethoxybenzene-1-sulfonyl)-5-methyl-1-benzofuran-2-carboxamide] | 6740 | > 20 |  | > 20 |  |  | > 2e-05 | 
CN(C)c1ccc2cc(C(=O)NS(=O)(=O)c3ccccc3-c3ccccc3)oc2c1Br [Example 203, N-([1,1′-biphenyl]-2-sulfonyl)-7-bromo-6-(dimethylamino)-1-benzofuran-2-carboxamide] | 8380 | > 20 |  | > 20 |  |  | > 2e-05 | 
CN(C)c1cc2oc(C(=O)NS(=O)(=O)c3ccccc3OC3CC3)cc2cc1Br [Example 207, 5-Bromo-N-[2-(cyclopropyloxy)benzene-1-sulfonyl]-6-(dimethylamino)-1-benzofuran-2-carboxamide] | 6810 | 11.8 |  | > 20 |  |  | > 2e-05 | 
CCNc1ccc2cc(C(=O)NS(=O)(=O)c3ccccc3-c3ccccc3)oc2c1 [Example 211, N-([1,1′-biphenyl]-2-sulfonyl)-6-(ethylamino)-1-benzofuran-2-carboxamide] | 350 | 4.84 |  | > 20 |  |  | 1.21e-06 | 
CCNc1ccc2cc(C(=O)NS(=O)(=O)c3ccccc3OCC)oc2c1 [Example 212, N-(2-Ethoxybenzene-1-sulfonyl)-6-(ethylamino)-1-benzofuran-2-carboxamide] | 1130 | 9.28 |  | > 20 |  |  | 4.19e-06 | 
CCOc1ccccc1S(=O)(=O)NC(=O)c1cc2ccc(N(C)CCOC)cc2o1 [Example 215, N-(2-Ethoxybenzene-1-sulfonyl)-6-[(2-methoxyethyl)(methyl)amino]-1-benzofuran-2-carboxamide] | 2660 | 11.8 |  | > 20 |  |  | 1.01e-05 | 
Cc1ccc2cccc(S(=O)(=O)NC(=O)c3cc4cc(Br)c(N(C)C)cc4o3)c2n1 [Example 216, 5-Bromo-6-(dimethylamino)-N-(2-methylquinoline-8-sulfonyl)-1-benzofuran-2-carboxamide] | 2050 | > 20 |  | > 20 |  |  | > 2e-05 | 
CN(C)c1cc2oc(C(=O)NS(=O)(=O)c3ccccc3-c3ccccc3)cc2cc1Br [Example 217, N-([1,1′-biphenyl]-2-sulfonyl)-5-bromo-6-(dimethylamino)-1-benzofuran-2-carboxamide] | 5540 | > 20 |  | > 20 |  |  | 8.13e-06 | 
CCOc1ccccc1S(=O)(=O)NC(=O)c1cc2cc(Br)c(N(C)C)cc2o1 [Example 218, 5-Bromo-6-(dimethylamino)-N-(2-ethoxybenzene-1-sulfonyl)-1-benzofuran-2-carboxamide] | 4730 | 7.9 |  | > 20 |  |  | 8.31e-06 | 
CCCCOc1ccccc1S(=O)(=O)NC(=O)c1cc2ccc(N(C)CCOC)cc2o1 [Example 219, N-(2-butoxybenzene-1-sulfonyl)-6-[(2-methoxyethyl)(methyl)amino]-1-benzofuran-2-carboxamide] | 1280 | 4.06 |  | > 20 |  |  | 6.05e-06 | 
CCNc1ccc2cc(C(=O)NS(=O)(=O)c3cccc4ccc(C)nc34)oc2c1 [Example 220, 6-(Ethylamino)-N-(2-methylquinoline-8-sulfonyl)-1-benzofuran-2-carboxamide] | 188 | 0.716 |  | > 20 |  |  | 8.91e-07 | 
Cc1ccc2cccc(S(=O)(=O)NC(=O)c3cc4c(F)cc(N(C)C)cc4o3)c2n1 [Example 227] | 4 |  |  |  | > 14.9 | 0.014 |  | 6.85e-08

More lines, in order of falling IC50 [1], values ahead:

IC50 [1] [nM] | IC50 ([2]; Homo sapiens, MVLN) [µM] | IC50 [3] [nM] | EC50 (MDA-MB-436 cells; [4]) [µM] | EC50 (MDA-MB-436 cells) [µM] | IC50 [2] [µM] | Compound | EC50 (ZR-75-1 cells; Homo sapiens, ZR-75-1, 144 h) [M] | EC50 (ZR-75-1 cells) [M]
4700 | 11.2 |  | > 20 |  |  | CCOc1ccccc1S(=O)(=O)NC(=O)c1cc2ccc(N(C)C)c(F)c2o1 [Example 191, 6-(Dimethylamino)-N-((2-ethoxyphenyl)sulfonyl)-7-fluorobenzofuran-2-carboxamide] | 5.64e-06 | 
2980 | 16.4 |  | > 20 |  |  | CN(C)c1ccc2cc(C(=O)NS(=O)(=O)c3ccccc3-c3ccccc3)oc2c1F [Example 192, N-([1,1′-biphenyl]-2-ylsulfonyl)-6-(dimethylamino)-7-fluorobenzofuran-2-carboxamide] | > 2e-05 | 
2590 | 5.8 |  | > 20 |  |  | CCOc1ccccc1S(=O)(=O)NC(=O)c1cc2cc(C#N)c(N(C)C)cc2o1 [Example 204, 5-Cyano-6-(dimethylamino)-N-(2-ethoxybenzene-1-sulfonyl)-1-benzofuran-2-carboxamide] | 6.4e-06 | 
2440 | 6.48 |  | > 20 |  |  | CN(C)c1cc2oc(C(=O)NS(=O)(=O)c3ccccc3-c3ccccc3)cc2cc1Cl [Example 189, N-([1,1′-biphenyl]-2-ylsulfonyl)-5-chloro-6-(dimethylamino)benzofuran-2-carboxamide] | > 2e-05 | 
1400 | 1.93 |  | 10.4 |  |  | Cc1ccc2cccc(S(=O)(=O)NC(=O)c3cc4ccc(N(C)C)c(F)c4o3)c2n1 [Example 190, 6-(Dimethylamino)-7-fluoro-N-((2-methylquinolin-8-yl)sulfonyl)benzofuran-2-carboxamide] | 3.3e-06 | 
900 | 13.6 | 1490 |  |  |  | CN(c1ccccc1)c1ccc2cc(C(=O)NS(=O)(=O)c3ccccc3-c3ccccc3)oc2c1 [Example 10, 6-(N-Methylanilino)-N-(2-phenylphenyl)sulfonyl-benzofuran-2-carboxamide] |  | 
894 | 1.27 |  | > 20 |  |  | Cc1ccc2cccc(S(=O)(=O)NC(=O)c3cc4cc(F)c(N(C)C)cc4o3)c2n1 [Example 197, 6-(Dimethylamino)-5-fluoro-N-((2-methylquinolin-8-yl)sulfonyl)benzofuran-2-carboxamide] | 2.84e-06 | 
732 | 5.53 |  | > 20 |  |  | COCCN(C)c1ccc2cc(C(=O)NS(=O)(=O)c3ccc(C)cc3-c3ccccc3)oc2c1 [Example 214, 6-[(2-Methoxyethyl)(methyl)amino]-N-(5-methyl[1,1′-biphenyl]-2-sulfonyl)-1-benzofuran-2-carboxamide] | 6.14e-06 | 
485 | 2.34 |  | 7.61 |  |  | COCCN(C)c1ccc2cc(C(=O)NS(=O)(=O)c3cccc4ccc(C)nc34)oc2c1 [Example 205, 6-[(2-Methoxyethyl)(methyl)amino]-N-(2-methylquinoline-8-sulfonyl)-1-benzofuran-2-carboxamide] | 2.17e-06 | 
137 | > 20 | 497 |  |  |  | CN(C)c1ccc2cc(C(=O)NS(=O)(=O)c3cccc4c3OCC4)oc2c1 [Example 30, N-(2,3-Dihydro-1-benzofuran-7-sulfonyl)-6-(dimethylamino)-1-benzofuran-2-carboxamide] |  | 
44.9 | 4.09 |  | > 20 |  |  | CN(C)c1cc(C(F)(F)F)c2cc(C(=O)NS(=O)(=O)c3ccccc3)oc2c1 [Example 194, 6-(Dimethylamino)-N-(phenylsulfonyl)-4-(trifluoromethyl)benzofuran-2-carboxamide] | 1.12e-06 | 
